“Also recorded” adds a separate entry of the source. Marks after values point to notes of the source that are not given here.
Tests used:
[1] = test system: MKP-1, α-globin, β-globin, preproenkephalin mRNA; assay: Real-time PCR of brain mRNAs; format: in vivo, mouse; conditions: Striatum, percentage of untreated R6/2, normalized to β-actin
Procedure: Real-time PCR: Reverse transcription of 1 Êg total RNA was conducted with a SuperScript™ First-Strand Synthesis System for RT-PCR (Invitrogen) using random hexamer primers per the manufacturer's instructions. Quantitative real-time PCR studies utilized a Bio-Rad iCycler to follow the amplification of cDNA products by using SYBR_ Green PCR Master Mix (Applied Biosystems) through 50 PCR cycles (95_C for 30 s, 57_C for 1 min, 72_C for 1.5 min). Specific amplification of the target sequences was determined by melt curve analysis and DNA sequencing. Primer pair sequences were as follows: Preproenkephalin (XM—131313) GTGTCCAGGCCCGAGTTC and […]; MKP-1 (NM_013642) […] and […]; _-globin (NM_008218) CCACCCTGCCGATTTCA and CCGCAGMGGCAGCTTAAC; _-globin (NM_008220) […] and CCCAGCACAATCACGATCA; _-actin (X03672) AGGTATCCTGACCCTGAAG and […]. Expression of the mRNAs of interest was calculated using the equation: V=(1+E reference)(C t reference)/(1+E target) (C t target) to correct for potential differences in RNA input and PCR primer efficiencies (Livak and Schmittgen, 2001). V=relative value of target gene normalized to reference (_-actin), E=primer efficiency, C t=threshold crossing cycle number. Differences between genotype and treatment groups were assessed using an unpaired, two-tailed Student's t-test.

[2] = test system: mRNA expression in R6/2 striatum and cortex; assay: Microarray gene expression analysis (U74Av2) of striatum and cortex; format: in vivo, mouse; parameters: key to Array, NaBu Txd R6/2 vs R6/2: I = increased; D = decreased; NC = no change
Procedure: Microarray Gene Expression Analysis: Beginning at six weeks of age, four mice were treated for 2 weeks with daily intraperitoneal injections (1.2 g/kg) of sodium butyrate. Mice were euthanized within 60 minutes of the last injection and cortical and striatal brain tissues were dissected separately and snap frozen on dry ice. In parallel, samples from four untreated R6/2 and four wild-type mice were collected in the same manner. One microarray sample was prepared from 10 Êg of total RNA from each tissue and hybridized to one U74Av2 array (Affymetrix). Four independent pair-wise comparisons were performed using MAS 5.0 software (Affymetrix) to evaluate gene expression changes between sodium butyrate-treated R6/2 and untreated R6/2 animals and between untreated R6/2 and untreated wild-type animals. Difference calls were scored, and only mRNAs that received difference calls in the same direction (increased or decreased) in at least 3 of the 4 pair-wise comparisons were included for presentation in the present study.

[3] = test system: Drosophila model of HD; conditions: Drosophila model of HD (Steffan 2001); cited from earlier work
[4] = test system: acetylated histone 3 and histone 4; assay: Immunocytochemistry of acetylated H3 and H4 in brain sections; format: in vivo, mouse; conditions: 1.2 g/kg/d i.p.; R6/2 mice at 90 days
Procedure: Neuropathological Evaluation of Sodium Butyrate Treatment: Beginning at 21 days, R6/2 transgenic mice and wild-type littermate control mice were treated daily with the most optimal dose of sodium butyrate (1.2 g/kg), as determined by survival studies, or PBS intraperitoneal injections. Groups of 10 animals from each treatment paradigm were deeply anesthetized and transcardially perfused with 4% buffered paraformaldehyde at 90 days of age. Forty mice were used for neuropathological analysis, as previously described (Ferrante et al., 2002). Serially cut tissue sections were stained for Nissl substance and immunostained for huntingtin (monoclonal huntingtin antibody, 1:1,000 dilution, Chemicon International Inc.) and for acetylated histone 3 and histone 4 (dilution, 1:1,000, Upstate Biotechnology, Lake Placid, N.Y.), using a previously reported conjugated secondary antibody method in murine brain tissue samples (Ferrante et al., 2002). Specificity for the antisera used in this study was examined in each immunochemical experiment to assist with the interpretation of the results. Preabsorption with excess target proteins, omission of the primary antibodies, and omission of secondary antibodies were performed to determine the amount of background generated from the detection assay.

[5] = test system: Sp1; conditions: wild type B6CBA mice at 8 weeks of age after 2 weeks of treatment (Ryu, 2003a); cited from earlier work
[6] = Angiomotin like 2 mRNA, AI854404, 160131_at, Cortex, treated vs untreated R6/2
[7] = Arginine vasopressin mRNA, M88354, 93381_at, Cortex, treated vs untreated R6/2
[8] = DNAJ/Heat shock protein 40 mRNA, AB028272, 96254_at, Striatum, treated vs untreated R6/2
[9] = Dynamin mRNA, L31397, 103031_g_at, Cortex, treated vs untreated R6/2
[10] = Erythroid differentiation regulator mRNA, AJ007909, 98525_f_at, Striatum, treated vs untreated R6/2
[11] = Hemoglobin, alpha adult chain 1 mRNA, V00714, 94781_at, Striatum + Cortex, treated vs untreated R6/2
[12] = Hemoglobin, beta 1 mRNA, V00722, 103534_at, Cortex, treated vs untreated R6/2
[13] = Hemoglobin, beta adult major chain mRNA, J00413, 101869_s_at, Striatum + Cortex, treated vs untreated R6/2
[14] = Heterogeneous nuclear ribonucleoprotein A1 mRNA, AI183202, 92724_at, Striatum, treated vs untreated R6/2
[15] = MAP kinase phosphatase-1 (MKP-1) mRNA, X61940, 104598_at, Striatum + Cortex, 1.2 g/kg i.p. 2 weeks vs untreated R6/2
[16] = MAP kinase phosphatase-3 (MKP-3) mRNA, AI845584, 93285_at, Cortex, treated vs untreated R6/2
[17] = Microtubule-associated protein tau mRNA, M18775, 102431_at, Cortex, treated vs untreated R6/2
[18] = Protein phosphatase 1B, beta isoform mRNA, D45859, 101836_at, Striatum, treated vs untreated R6/2
[19] = Transthyretin mRNA, D00073, 95350_at, Striatum, treated vs untreated R6/2
[20] = Unknown mRNA, AA711516, 96302_at, Striatum, treated vs untreated R6/2
[21] = Unknown mRNA, AI153421, 96215_f_at, Striatum, treated vs untreated R6/2
[22] = Unknown mRNA, AI451558, 97161_at, Striatum, treated vs untreated R6/2
[23] = Unknown mRNA, AV330064, 161114_i_at, Cortex, treated vs untreated R6/2
[24] = Unknown mRNA, C79248, 94689_at, Striatum + Cortex, treated vs untreated R6/2
[25] = c-fos oncogene mRNA, V00727, 160901_at, Cortex, treated vs untreated R6/2

## CCCC(=O)[O-].[Na+] [sodium butyrate]
[1]; MKP-1 mRNA, p<0.05
  PCR, NaBu Txd R6/2 vs R6/2: 181%^a
[1]; Preproenkephalin mRNA
  PCR, NaBu Txd R6/2 vs R6/2: 101%
[1]; α-globin mRNA, p<0.01
  PCR, NaBu Txd R6/2 vs R6/2: 206%^c
[1]; β-globin mRNA, p<0.02
  PCR, NaBu Txd R6/2 vs R6/2: 215%^b
[2]; [6]
  % Change calls: 100%
  Direction of change: Increase
[2]; [7]
  % Change calls: 75%
  Direction of change: Increase
[2]; [8]
  % Change calls: 75%
  Direction of change: Increase
[2]; [9]
  % Change calls: 75%
  Direction of change: Decrease
[2]; [10]
  % Change calls: 100%
  Direction of change: Decrease
[2]; [11]
  % Change calls: 100%
  Direction of change: Increase
[2]; [12]
  % Change calls: 75%
  Direction of change: Increase
[2]; [13]
  % Change calls: 100%
  Direction of change: Increase
[2]; [14]
  % Change calls: 75%
  Direction of change: Decrease
[2]; [15]
  % Change calls: 100%
  Direction of change: Increase
[2]; [16]
  % Change calls: 75%
  Direction of change: Increase
[2]; MKP-1 mRNA, Cortex
  Array, NaBu Txd R6/2 vs R6/2: I
[2]; MKP-1 mRNA, Striatum
  Array, NaBu Txd R6/2 vs R6/2: I
[2]; [17]
  % Change calls: 75%
  Direction of change: Decrease
[2]; Preproenkephalin mRNA, Striatum
  Array, NaBu Txd R6/2 vs R6/2: NC
[2]; [18]
  % Change calls: 75%
  Direction of change: Increase
[2]; [19]
  % Change calls: 75%
  Direction of change: Decrease
[2]; [20]
  % Change calls: 75%
  Direction of change: Decrease
[2]; [21]
  % Change calls: 75%
  Direction of change: Decrease
[2]; [22]
  % Change calls: 75%
  Direction of change: Decrease
[2]; [23]
  % Change calls: 75%
  Direction of change: Decrease
[2]; [24]
  % Change calls: 75%
  Direction of change: Decrease
[2]; [25]
  % Change calls: 100%
  Direction of change: Increase
[2]; treated R6/2 vs untreated R6/2, striatum and cortex, 1.2 g/kg i.p. 2 weeks
  number of mRNA changes: 20
[2]; α-globin mRNA, Cortex
  Array, NaBu Txd R6/2 vs R6/2: I
[2]; α-globin mRNA, Striatum
  Array, NaBu Txd R6/2 vs R6/2: I
[2]; β-globin mRNA, Cortex
  Array, NaBu Txd R6/2 vs R6/2: I
[2]; β-globin mRNA, Striatum
  Array, NaBu Txd R6/2 vs R6/2: I
[3]
  photoreceptor neuron degeneration and lethality: slow photoreceptor neuron degeneration and ameliorate lethality
[4]
  H3 and H4 acetylation immunostaining in brain sections: increased acetylation of histone 4; also recorded: greatly enhanced
[5]
  Sp1 acetylation: significantly augmented
